Tests used:
Type in all cases: in vivo
[1] = tested on: Sunflower; test: Test C preemergence; details: Rate 62 g/ha, scale 0 to 100
[2] = tested on: Sunflower; test: Test C preemergence; details: Rate 250 g/ha, scale 0 to 100, 0 no effect, 100 complete control
[3] = tested on: rice (Oryza saliva); test: Test C flooded paddy test; details: for Rice plant response rating: Flooded Paddy, Rate 500 g/ha, scale 0 to 100, 0 no effect, 100 complete control; for Plant response rating, Rice / Plant response rating (scale 0 to 100), Rice: flooded paddy test; for Plant response rating, Rice: scale 0 to 100 (0 no effect, 100 complete control); for Plant response rating (scale 0 to 100), Rice: Rate 62 g/ha, visually evaluated after 12 to 14 days, 0 = no effect, 100 = complete control
Procedure, shortened: (§1)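 Rice and three paddy weeds were grown to the 2-leaf stage under flooded conditions, then treated and kept in a greenhouse for 12–14 days. Response was rated visually against untreated controls on a 0–100 scale, where 100 is complete control.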

[4] = tested on: duck salad (Heteranthera limosa); test: Test C flooded paddy test; details: for Ducksalad plant response rating: Flooded Paddy, Rate 500 g/ha, scale 0 to 100, 0 no effect, 100 complete control; for Plant response rating, Ducksalad / Plant response rating (scale 0 to 100), Ducksalad: flooded paddy test; for Plant response rating, Ducksalad: scale 0 to 100 (0 no effect, 100 complete control); for Plant response rating (scale 0 to 100), Ducksalad: Rate 62 g/ha, visually evaluated after 12 to 14 days, 0 = no effect, 100 = complete control
Procedure, shortened: as §1

[5] = tested on: smallflower flatsedge (Cyperus difformis); test: Test C flooded paddy test; details: for Flatsedge plant response rating: Flooded Paddy, Rate 500 g/ha, scale 0 to 100, 0 no effect, 100 complete control; for Plant response rating, Flatsedge / Plant response rating (scale 0 to 100), Flatsedge: flooded paddy test; for Plant response rating, Flatsedge: scale 0 to 100 (0 no effect, 100 complete control); for Plant response rating (scale 0 to 100), Flatsedge: Rate 62 g/ha, visually evaluated after 12 to 14 days, 0 = no effect, 100 = complete control
Procedure, shortened: as §1

[6] = tested on: barnyardgrass (Echinochloa crus-galli); test: Test C flooded paddy test; details: for Barnyardgrass plant response rating: Flooded Paddy, Rate 500 g/ha, scale 0 to 100, 0 no effect, 100 complete control; for Plant response rating, Barnyardgrass / Plant response rating (scale 0 to 100), Barnyardgrass: flooded paddy test; for Plant response rating, Barnyardgrass: scale 0 to 100 (0 no effect, 100 complete control); for Plant response rating (scale 0 to 100), Barnyardgrass: Rate 62 g/ha, visually evaluated after 12 to 14 days, 0 = no effect, 100 = complete control
Procedure, shortened: as §1

[7] = tested on: pigweed (Amaranthus retroflexus); test: Test B preemergence
Procedure, shortened: (§2)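 Post-treatment, species sat 13–15 days under greenhouse conditions before visual scoring against controls, 0 (no effect) through 100 (complete control). Application preemergence to sown seeds or postemergence at 1- to 4-leaf stage, using a non-phytotoxic solvent/surfactant formulation.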

[8] = tested on: cocklebur (Xanthium strumarium); test: Test B preemergence
Procedure, shortened: as §2

[9] = tested on: crabgrass (Digitaria sanguinalis); test: Test B preemergence
Procedure, shortened: as §2

[10] = tested on: giant foxtail (Setaria faberii); test: Test B preemergence
Procedure, shortened: as §2

[11] = tested on: lambsquarters (Chenopodium album); test: Test B preemergence
Procedure, shortened: as §2

[12] = tested on: Surinam grass (Brachiaria decumbens); test: Test B preemergence
Procedure, shortened: as §2

[13] = tested on: rice (Oryza saliva); test: Test B preemergence
Procedure, shortened: as §2

[14] = tested on: morning glory (Ipomoea hederacea); test: Test B preemergence
Procedure, shortened: as §2

[15] = tested on: corn (Zea mays); test: Test B preemergence
Procedure, shortened: as §2

[16] = tested on: velvetleaf (Abutilon theophrasti); test: Test B preemergence
Procedure, shortened: as §2

[17] = tested on: barnyardgrass (Echinochloa crus-galli); test: Test B preemergence
Procedure, shortened: as §2

[18] = tested on: Nightshade; test: Test C preemergence; details: Rate 500 g/ha, visual evaluation after 12 to 14 days
[19] = tested on: pigweed (Amaranthus retroflexus); test: Test B postemergence
Procedure, shortened: as §2

[20] = tested on: cocklebur (Xanthium strumarium); test: Test B postemergence
Procedure, shortened: as §2

[21] = tested on: crabgrass (Digitaria sanguinalis); test: Test B postemergence
Procedure, shortened: as §2

[22] = tested on: giant foxtail (Setaria faberii); test: Test B postemergence
Procedure, shortened: as §2

[23] = tested on: lambsquarters (Chenopodium album); test: Test B postemergence
Procedure, shortened: as §2

[24] = tested on: Surinam grass (Brachiaria decumbens); test: Test B postemergence
Procedure, shortened: as §2

[25] = tested on: morning glory (Ipomoea hederacea); test: Test B postemergence
Procedure, shortened: as §2

[26] = tested on: barnyardgrass (Echinochloa crus-galli); test: Test B postemergence
Procedure, shortened: as §2

[27] = Preemergence, Rate 500 g/ha, scale 0 to 100, 0 no effect, 100 complete control
[28] = preemergence, Rate 125 g/ha, scale of 0 to 100 where 0 is no effect and 100 is complete control, 13 to 15 days
[29] = Rate 125 g/ha, scale 0 to 100, 0 no effect, 100 complete control
[30] = Rate 500 g/ha, scale 0 (no effect) to 100 (complete control), 13 to 15 days

Structure (SMILES): CCC(CC)c1ccn(C2CCN(c3ccc(F)c(C(F)(F)F)c3)C2=O)n1 (stereo not drawn) [Compound 144]
- Plant response rating, Sunflower [1]: 40
- Plant response rating, Sunflower [2]: 40
- Rice plant response rating [3]: 75
- Plant response rating, Rice ([3]; Rate 125 g/ha): 20
- Plant response rating, Rice ([3]; Rate 250 g/ha): 45
- Plant response rating (scale 0 to 100), Rice [3]: 20
- Ducksalad plant response rating [4]: 100
- Plant response rating, Ducksalad ([4]; Rate 125 g/ha): 50
- Plant response rating, Ducksalad ([4]; Rate 250 g/ha): 95
- Plant response rating (scale 0 to 100), Ducksalad [4]: 50
- Flatsedge plant response rating [5]: 95
- Plant response rating, Flatsedge ([5]; Rate 125 g/ha): 85
- Plant response rating, Flatsedge ([5]; Rate 250 g/ha): 95
- Plant response rating (scale 0 to 100), Flatsedge [5]: 85
- Barnyardgrass plant response rating [6]: 100
- Plant response rating, Barnyardgrass ([6]; Rate 125 g/ha): 100
- Plant response rating, Barnyardgrass ([6]; Rate 250 g/ha): 100
- Plant response rating (scale 0 to 100), Barnyardgrass [6]: 100
- Plant response rating, Pigweed [7, 27]: 100
- Plant response rating, Pigweed [7, 28]: 100
- Plant response rating, Cocklebur [8, 27]: 0
- Plant response rating, Cocklebur [8, 28]: 0
- Plant response rating, Crabgrass [9, 27]: 100
- Plant response rating, Crabgrass [9, 28]: 100
- Plant response rating, Foxtail, Giant [10, 27]: 100
- Plant response rating, Foxtail, Giant [10, 28]: 100
- Plant response rating, Lambsquarters [11, 27]: 100
- Plant response rating, Lambsquarters [11, 28]: 100
- Plant response rating, Surinam grass [12, 27]: 70
- Plant response rating, Surinam grass [12, 28]: 0
- Plant response rating, Rice [13, 27]: 0
- Plant response rating, Rice [13, 28]: 0
- Plant response rating, Morningglory [14, 27]: 0
- Plant response rating, Morningglory [14, 28]: 0
- Plant response rating, Corn [15, 27]: 20
- Plant response rating, Corn [15, 28]: 0
- Plant response rating, Velvetleaf [16, 27]: 0
- Plant response rating, Velvetleaf [16, 28]: 0
- Plant response rating, Barnyardgrass [17, 27]: 100
- Plant response rating, Barnyardgrass [17, 28]: 80
- Plant response rating (0 to 100), Nightshade [18]: 100
- Plant response rating, Pigweed [19, 29]: 50
- Plant response rating, Pigweed [19, 30]: 100
- Plant response rating, Cocklebur [20, 29]: 0
- Plant response rating, Cocklebur [20, 30]: 30
- Plant response rating, Crabgrass [21, 29]: 0
- Plant response rating, Crabgrass [21, 30]: 40
- Plant response rating, Foxtail, Giant [22, 29]: 20
- Plant response rating, Foxtail, Giant [22, 30]: 40
- Plant response rating, Lambsquarters [23, 29]: 100
- Plant response rating, Lambsquarters [23, 30]: 100
- Plant response rating, Surinam grass [24, 29]: 0
- Plant response rating, Surinam grass [24, 30]: 0
- Plant response rating, Morningglory [25, 29]: 0
- Plant response rating, Morningglory [25, 30]: 30
- Plant response rating, Barnyardgrass [26, 29]: 0
- Plant response rating, Barnyardgrass [26, 30]: 0

Structure (SMILES): COc1cc(N2CCC(n3ccc(C(C)(C)C)n3)C2=O)ccc1Br (stereo not drawn) [Compound 141]
- Plant response rating, Sunflower [1]: 30
- Plant response rating, Sunflower [2]: 40
- Rice plant response rating [3]: 35
- Plant response rating, Rice ([3]; Rate 125 g/ha): 25
- Plant response rating, Rice ([3]; Rate 250 g/ha): 30
- Plant response rating (scale 0 to 100), Rice [3]: 0
- Ducksalad plant response rating [4]: 100
- Plant response rating, Ducksalad ([4]; Rate 125 g/ha): 95
- Plant response rating, Ducksalad ([4]; Rate 250 g/ha): 100
- Plant response rating (scale 0 to 100), Ducksalad [4]: 85
- Flatsedge plant response rating [5]: 95
- Plant response rating, Flatsedge ([5]; Rate 125 g/ha): 90
- Plant response rating, Flatsedge ([5]; Rate 250 g/ha): 95
- Plant response rating (scale 0 to 100), Flatsedge [5]: 90
- Barnyardgrass plant response rating [6]: 100
- Plant response rating, Barnyardgrass ([6]; Rate 125 g/ha): 100
- Plant response rating, Barnyardgrass ([6]; Rate 250 g/ha): 100
- Plant response rating (scale 0 to 100), Barnyardgrass [6]: 70
- Plant response rating, Pigweed [7, 27]: 100
- Plant response rating, Pigweed [7, 28]: 100
- Plant response rating, Cocklebur [8, 27]: 100
- Plant response rating, Cocklebur [8, 28]: 70
- Plant response rating, Crabgrass [9, 27]: 100
- Plant response rating, Crabgrass [9, 28]: 100
- Plant response rating, Foxtail, Giant [10, 27]: 100
- Plant response rating, Foxtail, Giant [10, 28]: 100
- Plant response rating, Lambsquarters [11, 27]: 100
- Plant response rating, Lambsquarters [11, 28]: 100
- Plant response rating, Surinam grass [12, 27]: 100
- Plant response rating, Surinam grass [12, 28]: 100
- Plant response rating, Rice [13, 27]: 50
- Plant response rating, Rice [13, 28]: 30
- Plant response rating, Morningglory [14, 27]: 100
- Plant response rating, Morningglory [14, 28]: 90
- Plant response rating, Corn [15, 27]: 20
- Plant response rating, Corn [15, 28]: 0
- Plant response rating, Velvetleaf [16, 27]: 100
- Plant response rating, Velvetleaf [16, 28]: 70
- Plant response rating, Barnyardgrass [17, 27]: 100
- Plant response rating, Barnyardgrass [17, 28]: 100
- Plant response rating (0 to 100), Nightshade [18]: 100
- Plant response rating, Pigweed [19, 29]: 80
- Plant response rating, Pigweed [19, 30]: 100
- Plant response rating, Cocklebur [20, 29]: 40
- Plant response rating, Cocklebur [20, 30]: 100
- Plant response rating, Crabgrass [21, 29]: 20
- Plant response rating, Crabgrass [21, 30]: 40
- Plant response rating, Foxtail, Giant [22, 29]: 30
- Plant response rating, Foxtail, Giant [22, 30]: 50
- Plant response rating, Lambsquarters [23, 29]: 90
- Plant response rating, Lambsquarters [23, 30]: 100
- Plant response rating, Surinam grass [24, 29]: 0
- Plant response rating, Surinam grass [24, 30]: 0
- Plant response rating, Morningglory [25, 29]: 0
- Plant response rating, Morningglory [25, 30]: 70
- Plant response rating, Barnyardgrass [26, 29]: 0
- Plant response rating, Barnyardgrass [26, 30]: 80
